Results on two molecules are retold here after ChEMBL document CHEMBL3525919, “Potent inhibition of human sulfotransferase 1A1 by 17α-ethinylestradiol: role of 3'-phosphoadenosine 5'-phosphosulfate binding and structural rearrangements in regulating inhibition and activity” (Drug Metab Dispos, 2012).

The target of experiment [1] is T1, Sulfotransferase 1A1 (Homo sapiens, UniProt P50225). The experiment can be described thus: Binding affinity to human SULT1A1 expressed in Escherichia coli assessed as change in intrinsic fluorescence. The format is ADME.
Experiment [2] addresses T1, Sulfotransferase 1A1. The experiment can be described thus: Binding affinity to human SULT1A1 expressed in Escherichia coli assessed as change in intrinsic fluorescence in presence of 3',5'-phosphoadenosine. The experiment is classed as ADME.
Experiment [3] deals with T1, Sulfotransferase 1A1. Kind of experiment: Inhibition of SULT1A1 in human MCF7 cells assessed as 17beta-estradiol sulfation. The format is cell-based.
In experiment [4] the target is T1, Sulfotransferase 1A1. Kind of experiment: Inhibition of human SULT1A1 expressed in Escherichia coli assessed as beta-naphthol sulfation at 100 nM by Michaelis-Menten equation analysis.
Experiment [5] addresses T1, Sulfotransferase 1A1. The experiment can be described thus: Inhibition of human SULT1A1 expressed in Escherichia coli assessed as 17beta-estradiol sulfation at 100 nM by Michaelis-Menten equation analysis.
Experiment [6] addresses T1, Sulfotransferase 1A1. The experiment can be described thus: Inhibition of human SULT1A1 expressed in Escherichia coli assessed as p-nitrophenol sulfation at 100 nM by Michaelis-Menten equation analysis.

Broadly, the Kd is a measure of binding affinity in units of concentration. The term IC50 denotes the concentration that gives 50% inhibition. By Ki is commonly meant a measure of affinity in units of concentration, obtained from inhibition or displacement.

T1 sequence (P50225 whole entry): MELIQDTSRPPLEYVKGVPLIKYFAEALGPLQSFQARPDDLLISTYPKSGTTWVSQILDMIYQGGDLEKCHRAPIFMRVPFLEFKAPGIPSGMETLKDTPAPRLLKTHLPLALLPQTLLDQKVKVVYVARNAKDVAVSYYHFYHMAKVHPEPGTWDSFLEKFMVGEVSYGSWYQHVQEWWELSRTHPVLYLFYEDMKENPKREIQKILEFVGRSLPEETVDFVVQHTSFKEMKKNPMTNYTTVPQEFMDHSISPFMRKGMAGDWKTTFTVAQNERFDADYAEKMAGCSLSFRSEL

Consider `C[C@]12CC[C@@H]3c4ccc(O)cc4CC[C@H]3[C@@H]1CC[C@@H]2O` [ESTRADIOL], for which the Kd worked out at 2300 nM on Sulfotransferase 1A1 [1] and 1200 nM at Sulfotransferase 1A1 [2].

Consider `C#C[C@]1(O)CC[C@H]2[C@@H]3CCc4cc(O)ccc4[C@H]3CC[C@@]21C` [ETHINYL ESTRADIOL], for which, at Sulfotransferase 1A1 [3], the concentration for half-maximal inhibition (IC50) came to 20 nM. Moreover, the Ki on Sulfotransferase 1A1 [4] was found to be 19 nM; on Sulfotransferase 1A1 [5], 14.9 nM; on Sulfotransferase 1A1 [6], 8.9 nM. Besides, the Kd worked out at 500 nM on Sulfotransferase 1A1 [1] and 4.3 nM at Sulfotransferase 1A1 [2].
